What was measured:
[1] = target: AAK1 (full length human) in HEK293F cells (Homo sapiens, UniProt Q2M2I8); test: HEK293F Cell-Based Assay (phospho-mu2 Western blot); settings: 3 hours
Protocol: HEK293F cells were cultured in media containing DMEM (Gibco, cat. #11965), 10% FBS (SAFC Biosciences, cat. #12103C), 1×GPS (glutamine, penicillin and streptomycin). On day one, cells were plated on a 10 cm dish so that they are ˜80% confluent at time of transfection. Roughly 12 million cells were in a 10 cm dish at time of transfection. On day two, each dish was transfected with 48 ug DNA and 144 ul Lipofectamine 2000 (Invitrogen, cat. #11668-019). The DNA was comprised of a mixture (per 10 cm dish) containing 3 ug AAK1/HA/pIRES (full length human, NCBI accession no. NP_055726.2), 45 μg Flag/AP2MI/pcDNA (full length human), and 1.5 ml OPTI-MEM. The Lipofectamine 2000 is made up of a mixture (per 10 cm dish) containing 144 μl Lipofectamine 2000 and 1.5 ml OPTI-MEM. Each mixture was transferred to individual 15 ml tubes and incubated at RT for 5 minutes, and then the two mixes were combined and incubated at RT for 20 minutes. Growth media was then aspirated from each 10 cm plate and replaced with 10 ml of DMEM+10% FBS (no GPS). Finally, 3 ml DNA/Lipofectamine mix was added to each 10 cm dish and mix gently followed by incubate of plate overnight at 37° C. and 5% CO2.
On day three, compounds were diluted in 100% DMSO at 1000× final concentration, followed by 3-fold serial dilutions for a total of 5 concentrations tested. Four compounds were tested per 10 cm dish. One ul of each compound dilution was then pipetted into a deep-well, 96-well plate, followed by addition of 500 μl DMEM+0.5% FBS into each well for a 2× final concentration of each compound. Cells were resuspended in a 10 cm dish by simple pipetting (HEK293 cells come off the plate that easy at this point) and then transferred to a 50 ml conical tube and pelleted by centrifugation at 1000 rpm for 5 min. Cell pellets were then resuspended in 2.75 ml DMEM+0.5% FBS per 10 cm dish and 100 μl of cell suspension transferred into each well of 96-well TC plate. Finally, 100 μl of 2× compound diluted in DMEM+0.5% FBS was then added into wells containing cell suspension for a 1× final concentration. Plates were then incubated at 37° C. and 5% CO2 for 3 hours followed by transferring of cell suspensions from each well into 12-tube PCR strips. The PCR strips were spun in a tip rack at 1000 rpm for 5 minutes to pellet cells and media was then removed by pipetting without disturbing the cell pellet.
To prepare for Western Blot analysis, cell pellets were resuspend in 40 ul 1× LDS-PAGE sample buffer (Invitrogen, cat. # NP0008)+2× Halt phophatase and protease inhibitor cocktail (Thermo Scientific, cat. #1861284), followed by sonicating each with microtip sonicator set at 5 for 8-10 seconds. Five ul of 10× NuPage Sample Reducing Agent (with 50 mM DTT) was to each sample followed by heat denaturing at 70 C for 10 min on PCR machine. A total of 10 μl per sample was loaded into each lane of a 4-20% Tris-Glycine Criterion 26-well gel (Biorad, cat. #345-0034) for the phospho-mu2 blot and 10 μl per lane in a 4-12% Bis-Tris (+MES buffer) NuPAGE 26-well gel (Invitrogen, cat. # WG1403BX10) for the mu2 blot. For controls, 2 ng of phospho-mu2 or 20 ng mu2/Flag proteins were loaded in the last well of each gel. After SDS-PAGE, samples on each gel were transferred to PVDF membrane using an iBlot and membranes were blocked for one hour in TBST+5% milk, followed by wash 3× for 5-10 min with TBST. Criterion gels were probed with rabbit anti-phospho-mu2 (1:5000; a rabbit polyclonal antibody produced by New England Peptide and affinity purified at Lexicon) in TBST+5% BSA, whereas, NuPAGE gels were probed with mouse anti-Flag (1:500; Sigma, cat. # F1804) in TBST+5% milk, and these primary antibodies were incubated overnight at 4° C. on a rocker. […]

GST-Xa-hAAK1 = target: T1, GST-Xa-hAAK1 (Homo sapiens, UniProt Q2M2I8); test: AAK1 Kinase Assay; type: biochemical; settings: ATP 22 μM
T1 construct: made in house
Protocol: The assays were performed in U-bottom 384-well plates. The final assay volume was 30 μl prepared from 15 μl additions of enzyme and substrates (fluoresceinated peptide (5-FAM)-Aha-[…]-NH2 and ATP) and test compounds in assay buffer (10 mM Tris-HCL pH 7.4, 10 mM MgCl2, 0.01% Tween-20 and 1.0 mM DTT). The reactions were initiated by the combination of bacterially expressed, GST-Xa-hAAK1 with substrates and test compounds. The reactions were incubated at room temperature for 3 hours and terminated by adding 60 μl of 35 mM EDTA buffer to each sample. The reactions were analyzed on the Caliper LabChip 3000 (Caliper, Hopkinton, Mass.) by electrophoretic separation of the fluorescent substrate and phosphorylated product. […] The final concentration of reagents in the assays are ATP, 22 μM; (5-FAM)-Aha-[…]-NH2, 1.5 μM; GST-Xa-hAAK1, 3.5 nM; and DMSO, 1.6%. Dose response curves were generated to determine the concentration required inhibiting 50% of kinase activity (IC50). Compounds were dissolved at 10 mM in dimethylsulfoxide (DMSO) and evaluated at eleven concentrations. IC50 values were derived by non-linear regression analysis.

mice = test: formalin paw test; type: in vivo, mouse
Protocol: AAK1 homozygous (−/−) and their wild-type (+/+) littermates were tested using the formalin paw test in order to assess their acute and tonic nociceptive responses. For these tests, Automatic Nociception Analyzers (purchased from the Ozaki lab at University of California, San Diego) were used. A metal band was placed around the left hind paw of each mouse 30 minutes prior to testing. After the 30-minute acclimation period, 20 μl of 5% formalin is subcutaneously injected in the dorsal surface of the left hind paw. Mice were individually housed in cylindrical chambers for 45 minutes. Fresh 5% formalin solution was prepared by diluting formaldehyde (Formalde-fresh 20%, Fisher Scientific, Fair Lawn, N.J.) with distilled water. Investigatory compounds were administered 30 minutes prior to formalin injection.
A computer recorded flinches per minute, total flinches for phase I (acute phase=first 8 minutes), and total flinches for phase II (tonic phase=time between minutes 20-40) through an electromagnetic field. See Yaksh T L, Ozaki G, McCumber D, Rathbun M, Svensson C, Malkmus S, Yaksh M C. An automated flinch detecting system for use in the formalin nociceptive bioassay. J Appl Physiol., 2001; 90:2386-402.
The same test was used to confirm that the administration of an AAK1 inhibitor can also affect pain response.
A compound of the disclosure was tested in this assay at different doses. Gabapentin and pregabalin were used as positive controls. Results are shown below in Table 2, wherein the effect of gabapentin at 200 mg/kg is considered a 100% response, the % response for the other compounds is relative to the 200 mg/kg dose of gabapentin, “sc” means subcutaneous administration.

T1 sequence (Q2M2I8 whole entry): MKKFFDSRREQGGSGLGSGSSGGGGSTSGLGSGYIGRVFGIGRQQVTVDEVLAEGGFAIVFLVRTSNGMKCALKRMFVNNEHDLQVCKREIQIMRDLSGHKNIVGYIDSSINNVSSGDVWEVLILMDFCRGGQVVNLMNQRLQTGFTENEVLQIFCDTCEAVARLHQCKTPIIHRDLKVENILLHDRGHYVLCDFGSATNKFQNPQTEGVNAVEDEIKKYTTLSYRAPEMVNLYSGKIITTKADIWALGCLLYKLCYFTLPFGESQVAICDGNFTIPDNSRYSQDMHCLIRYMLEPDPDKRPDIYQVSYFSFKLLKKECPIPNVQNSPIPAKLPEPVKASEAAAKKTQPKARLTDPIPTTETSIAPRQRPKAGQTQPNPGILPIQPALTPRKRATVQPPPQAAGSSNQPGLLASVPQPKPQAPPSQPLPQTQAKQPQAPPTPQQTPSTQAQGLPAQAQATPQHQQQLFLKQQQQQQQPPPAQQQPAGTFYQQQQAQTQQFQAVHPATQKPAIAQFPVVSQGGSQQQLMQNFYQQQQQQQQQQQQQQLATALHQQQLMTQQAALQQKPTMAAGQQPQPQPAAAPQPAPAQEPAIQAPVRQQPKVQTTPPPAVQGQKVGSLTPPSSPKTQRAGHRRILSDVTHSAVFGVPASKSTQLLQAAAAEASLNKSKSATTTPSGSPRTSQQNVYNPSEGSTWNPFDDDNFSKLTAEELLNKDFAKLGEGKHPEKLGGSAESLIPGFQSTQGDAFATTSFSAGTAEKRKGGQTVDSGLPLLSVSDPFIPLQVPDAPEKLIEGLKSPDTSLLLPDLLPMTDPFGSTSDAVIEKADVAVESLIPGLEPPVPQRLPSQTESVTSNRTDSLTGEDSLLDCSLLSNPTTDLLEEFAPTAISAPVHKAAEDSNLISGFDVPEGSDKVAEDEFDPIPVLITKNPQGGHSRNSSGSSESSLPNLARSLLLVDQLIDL
AAK1 (full length human) in HEK293F cells, sequence (Q2M2I8 1-822 limits assumed): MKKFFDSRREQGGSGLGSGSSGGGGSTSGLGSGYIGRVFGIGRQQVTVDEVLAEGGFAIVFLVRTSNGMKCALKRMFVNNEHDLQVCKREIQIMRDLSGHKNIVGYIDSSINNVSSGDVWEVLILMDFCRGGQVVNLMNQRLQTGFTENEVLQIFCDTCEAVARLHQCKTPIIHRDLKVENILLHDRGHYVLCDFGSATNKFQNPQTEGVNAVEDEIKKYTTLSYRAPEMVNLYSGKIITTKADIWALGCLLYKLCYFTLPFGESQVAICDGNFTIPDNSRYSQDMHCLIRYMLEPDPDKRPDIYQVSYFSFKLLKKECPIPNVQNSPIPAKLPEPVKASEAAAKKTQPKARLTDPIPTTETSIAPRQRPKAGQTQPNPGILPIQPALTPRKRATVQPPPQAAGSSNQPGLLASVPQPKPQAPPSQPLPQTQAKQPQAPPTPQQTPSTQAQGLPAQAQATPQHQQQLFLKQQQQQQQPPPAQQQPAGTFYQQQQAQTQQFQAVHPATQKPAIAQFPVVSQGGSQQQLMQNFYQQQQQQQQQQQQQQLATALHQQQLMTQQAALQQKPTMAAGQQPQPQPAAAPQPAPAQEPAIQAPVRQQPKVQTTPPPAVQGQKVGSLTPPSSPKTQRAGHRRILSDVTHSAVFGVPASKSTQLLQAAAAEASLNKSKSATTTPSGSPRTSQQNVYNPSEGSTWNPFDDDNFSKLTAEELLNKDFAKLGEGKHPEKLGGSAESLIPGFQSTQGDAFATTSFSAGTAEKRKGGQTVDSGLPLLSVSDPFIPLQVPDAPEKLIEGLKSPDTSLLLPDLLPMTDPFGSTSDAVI

| Compound | IC50 ([1]; IC50 ranges) [nM] | IC50 (GST-Xa-hAAK1; IC50 ranges) [nM] | also measured |
| --- | --- | --- | --- |
| CCC(=O)Nc1cc2c(cn1)COc1cc(OC[C@@H](N)CC(C)C)ccc1-2 [Example 73, (S)—N-(8-((2-amino-4-methylpentyl)oxy)-5H-chromeno[3,4-c]pyridin-2-yl)propionamide] | 10 to 100 | 1 to 10 |  |
| CC(C)C[C@H](N)COc1ccc2c(c1)OC(C(F)(F)F)c1cnccc1-2 (single isomer, unassigned; diastereomer 1) [Example 52] | 10 to 100 | 10 to 100 |  |
| CC(=O)Nc1cc2c(cn1)COc1c-2ccc(OCC(C)(N)CC(C)C)c1OC(F)F (racemic) [Example 65, N-(8-((2-amino-2,4-dimethylpentyl)oxy)-7-(difluoromethoxy)-5H-chromeno[3,4-c]pyridin-2-yl)acetamide] | < 1 | < 1 |  |
| CC1Oc2cc(OCC(N)CCC(F)(F)F)ccc2-c2ccncc21 (stereo not drawn) [Example 57, 5,5,5-trifluoro-1-((5-methyl-5H-chromeno[3,4-c]pyridin-8-yl)oxy)pentan-2-amine] | 10 to 100 | 1 to 10 |  |
| CC(=O)Nc1cc2c(cn1)COc1cc(OC[C@](C)(N)CC(C)C)ccc1-2 [Example 46, (R)—N-(8-((2-amino-2,4-dimethylpentyl)oxy)-5H-chromeno[3,4-c]pyridin-2-yl)acetamide] | 1 to 10 | 1 to 10 |  |
| COC(=O)Nc1cc2c(cn1)COc1cc(OCC(C)(N)CC(C)C)ccc1-2 (stereo not drawn) [Example 67, methyl (8-((2-amino-2,4-dimethylpentyl)oxy)-5H-chromeno[3,4-c]pyridin-2-yl)carbamate] | 10 to 100 | 1 to 10 |  |
| CC1Oc2cc(OCC(N)CC(C)(C)F)ccc2-c2ccncc21 (stereo not drawn) [Example 26, 4-fluoro-4-methyl-1-(5-methyl-5H-chromeno[3,4-c]pyridin-8-yloxy)pentan-2-amine] | 10 to 100 | 1 to 10 |  |
| CC(=O)Nc1cc2c(cn1)COc1c-2ccc(OC[C@@H](N)CC(C)C)c1OC(F)F [Example 59, (S)—N-(8-((2-amino-4-methylpentyl)oxy)-7-(difluoromethoxy)-5H-chromeno[3,4-c]pyridin-2-yl)acetamide] | < 1 | 1 to 10 |  |
| COC(=O)Nc1cc2c(cn1)COc1c-2ccc(OC[C@@H](N)CC(C)C)c1Cl [Example 74, (S)-methyl (8-((2-amino-4-methylpentyl)oxy)-7-chloro-5H-chromeno[3,4-c]pyridin-2-yl)carbamate] | < 1 | 1 to 10 |  |
| COC(=O)Nc1cc2c(cn1)COc1cc(OCC(C)(N)CC(C)C)ccc1-2 (racemic) [Example 60, methyl (8-((2-amino-2,4-dimethylpentyl)oxy)-5H-chromeno[3,4-c]pyridin-2-yl)carbamate] | 1 to 10 | 1 to 10 |  |
| NCC1(CC(=O)O)CCCCC1 [Gabapentin] |  |  | Response (mice; 50 mg/kg sc, relative to gabapentin 200 mg/kg = 100% response): 60%; Response (mice; 200 mg/kg sc, considered a 100% response): 100% |
| CCOC(=O)Nc1cc2c(cn1)COc1cc(OC[C@@](C)(N)CC(C)C)ccc1-2 [Example 81, (S)-ethyl (8-((2-amino-2,4-dimethylpentyl)oxy)-5H-chromeno[3,4-c]pyridin-2-yl)carbamate] | < 1 | < 1 |  |
| CCOC(=O)Nc1cc2c(cn1)COc1cc(OC[C@@H](N)CC(C)C)ccc1-2 [Example 77, (S)-ethyl (8-((2-amino-4-methylpentyl)oxy)-5H-chromeno[3,4-c]pyridin-2-yl)carbamate] | 1 to 10 | 1 to 10 |  |
| CC(C)C[C@H](N)COc1ccc2c(c1)OCc1cnc(NC(=O)OC(C)C)cc1-2 [Example 64, (S)-isopropyl (8-((2-amino-4-methylpentyl)oxy)-5H-chromeno[3,4-c]pyridin-2-yl)carbamate] |  |  | IC50 ([1]; numeric values): 15 nM; IC50 (GST-Xa-hAAK1; numeric values): 5.2 nM |
| COC(=O)Nc1cc2c(cn1)COc1c-2ccc(OCC(C)(N)CC(C)C)c1OC(F)F (racemic) [Example 76, methyl (8-((2-amino-2,4-dimethylpentyl)oxy)-7-(difluoromethoxy)-5H-chromeno[3,4-c]pyridin-2-yl)carbamate] | 1 to 10 | < 1 |  |
| CC(C)C[C@H](N)COc1cc2c(cc1Cl)-c1ccncc1[C@@H](C(F)(F)F)O2 (single isomer, unassigned) [Example 27b] | 1 to 10 | 1 to 10 |  |
| CC(=O)Nc1cc2c(cn1)COc1c-2ccc(OC[C@@H](N)CC(C)C)c1Cl [Example 63, (S)—N-(8-((2-amino-4-methylpentyl)oxy)-7-chloro-5H-chromeno[3,4-c]pyridin-2-yl)acetamide] | < 1 | < 1 |  |
| COC(=O)Nc1cc2c(cn1)COc1cc(OCC(C)(N)CC(C)C)ccc1-2 (stereo not drawn) [Example 70, methyl (8-((2-amino-2,4-dimethylpentyl)oxy)-5H-chromeno[3,4-c]pyridin-2-yl)carbamate] | 1 to 10 |  |  |
| COc1c(OCC(C)(N)CC(C)C)ccc2c1OCc1cnc(NC(C)=O)cc1-2 (racemic) [Example 66, N-(8-((2-amino-2,4-dimethylpentyl)oxy)-7-methoxy-5H-chromeno[3,4-c]pyridin-2-yl)acetamide] | 1 to 10 | < 1 |  |
| COC(=O)Nc1ncc2c(c1Cl)-c1cc(Cl)c(OC[C@@](C)(N)CC(C)C)cc1OC2 [Example 82, (S)-methyl (8-((2-amino-2,4-dimethylpentyl)oxy)-1,9-dichloro-5H-chromeno[3,4-c]pyridin-2-yl)carbamate] | 1 to 10 | 1 to 10 |  |

Source: patent publication US20160222021A1, “ARYL ETHER-BASE KINASE INHIBITORS” (BRISTOL-MYERS SQUIBB COMPANY, priority 2013, published 2016)
